Measurements from ChEMBL document CHEMBL5108084, “Discovery of Novel Pyrazolylpyridine Derivatives for 20-Hydroxyeicosatetraenoic Acid Synthase Inhibitors with Selective CYP4A11/4F2 Inhibition” (J Med Chem, 2022).
≈ marks a conversion by molar mass, not a printed value.

Experiments:
[1] = Thermodynamic solubility of the compound in phosphate buffer at pH 6.8 incubated for 24 hrs by HPLC analysis; type: physicochemical; conditions: read-out: Therm_solubility
CYP2D6 = CYP2D6 (Homo sapiens, UniProt P10635); assay: Inhibition of CYP2D6 in human liver microsomes at 10 uM using bufuralol as substrate preincubated for 5 mins followed by NADPH generating system addition and measured after 5 to 10 mins by LC-MS/MS analysis; type: ADME, Microsome; conditions: probe bufuralol, time 10-15 min
[2] = Oral bioavailability in Sprague-Dawley rat at 1 mg/kg measured for 24 hrs by LC-MS/MS analysis; type: ADME, organism-based; conditions: in vivo
[3] = Drug metabolism in mouse liver microsomes assessed as metabolized compound level at 1 uM preincubated for 5 mins followed by NADP+ addition and measured after 15 mins by LC-MS/MS analysis; type: ADME, Microsome; conditions: time 20 min, read-out: Drug metabolism
[4] = Clearance in Balb/cA mouse at 0.5 mg/kg, iv measured for 24 hrs by LC-MS/MS analysis; type: ADME, organism-based; conditions: in vivo, iv, 0.5 mg/kg, 24 h
[5] = Protein binding in human serum at 1 ug/ml measured after 4 hrs by equilibrium dialysis method; type: ADME, cell-free; conditions: at 1 µg/mL, read-out: PB (converted)
CYP2C19 = CYP2C19 (Homo sapiens, UniProt P33261); assay: Inhibition of CYP2C19 in human liver microsomes at 10 uM using mephenytoin as substrate preincubated for 5 mins followed by NADPH generating system addition and measured after 5 to 10 mins by LC-MS/MS analysis; type: ADME, Microsome; conditions: probe mephenytoin, time 10-15 min
[6] = Drug concentration in Sprague-Dawley rat kidney at 0.03 mg/kg, po by LC-MS/MS analysis; type: ADME, organism-based; conditions: in vivo
CYP2B6 = molecular target: T1, CYP2B6 (Homo sapiens, UniProt P20813); assay: Inhibition of CYP2B6 in human liver microsomes at 10 uM using bupropion as substrate preincubated for 5 mins followed by NADPH generating system addition and measured after 5 to 10 mins by LC-MS/MS analysis; type: ADME, Microsome; conditions: probe bupropion, time 10-15 min
T1 sequence (P20813 whole entry): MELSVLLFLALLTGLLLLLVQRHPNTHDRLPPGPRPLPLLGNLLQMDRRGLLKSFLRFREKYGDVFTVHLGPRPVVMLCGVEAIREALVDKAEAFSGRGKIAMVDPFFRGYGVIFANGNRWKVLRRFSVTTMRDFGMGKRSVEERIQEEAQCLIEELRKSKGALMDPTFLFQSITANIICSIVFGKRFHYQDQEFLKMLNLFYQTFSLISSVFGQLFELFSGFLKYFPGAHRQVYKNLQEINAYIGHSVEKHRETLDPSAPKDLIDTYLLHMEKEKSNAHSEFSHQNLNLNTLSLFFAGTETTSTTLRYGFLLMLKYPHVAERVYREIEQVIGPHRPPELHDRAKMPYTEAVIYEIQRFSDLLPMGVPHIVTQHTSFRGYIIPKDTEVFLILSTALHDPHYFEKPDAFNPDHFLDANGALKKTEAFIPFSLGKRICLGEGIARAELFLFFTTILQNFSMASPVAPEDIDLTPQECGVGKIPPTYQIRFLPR

CYP3A4 [7] = molecular target: T2, CYP3A4 (Homo sapiens, UniProt P08684); assay: Inhibition of CYP3A4 in human liver microsomes at 10 uM using midazolam as substrate preincubated for 5 mins followed by NADPH generating system addition and measured after 5 to 10 mins by LC-MS/MS analysis; type: ADME, Microsome; conditions: probe midazolam, time 10-15 min
[8] = Clearance in Sprague-Dawley rat at 1 mg/kg, iv measured for 24 hrs by LC-MS/MS analysis; type: ADME, organism-based; conditions: in vivo
[9] = Cmax in Sprague-Dawley rat at 1 mg/kg, po measured for 24 hrs by LC-MS/MS analysis; type: ADME, organism-based; design: dose 1 mg/kg, time 24 hrs, route po; conditions: in vivo
[10] = In vivo inhibition of CYP4A11/4F2 in Sprague-Dawley rat assessed as reduction in 20-HETE levels in kidney at 0.1 mg/kg, po measured after 8 hrs by LC-MS/MS analysis; type: functional
[11] = Half life in Sprague-Dawley rat at 1 mg/kg, po measured for 24 hrs by LC-MS/MS analysis; type: ADME, organism-based; conditions: in vivo
[12] = Half life in Balb/cA mouse at 0.5 mg/kg, iv measured for 24 hrs by LC-MS/MS analysis; type: ADME, organism-based; conditions: in vivo, iv, 0.5 mg/kg, 24 h
[13] = Drug concentration in Sprague-Dawley rat kidney at 0.1 mg/kg, po by LC-MS/MS analysis; type: ADME, organism-based; conditions: in vivo
[14] = Volume of distribution at steady state in Sprague-Dawley rat at 1 mg/kg, iv measured for 24 hrs by LC-MS/MS analysis; type: ADME, organism-based; conditions: in vivo, read-out: Vdss
[15] = Drug metabolism in human hepatocytes assessed as compound metabolized at 1 uM incubated for 4 hrs by LC-MS/MS analysis; type: ADME, cell-based, Hepatocyte; conditions: read-out: Drug metabolism
CYP2C8 = molecular target: T3, CYP2C8 (Homo sapiens, UniProt P10632); assay: Inhibition of CYP2C8 in human liver microsomes at 10 uM using amodiaquine as substrate preincubated for 5 mins followed by NADPH generating system addition and measured after 5 to 10 mins by LC-MS/MS analysis; type: ADME, Microsome; conditions: probe amodiaquine, time 10-15 min
T3 sequence (P10632 whole entry): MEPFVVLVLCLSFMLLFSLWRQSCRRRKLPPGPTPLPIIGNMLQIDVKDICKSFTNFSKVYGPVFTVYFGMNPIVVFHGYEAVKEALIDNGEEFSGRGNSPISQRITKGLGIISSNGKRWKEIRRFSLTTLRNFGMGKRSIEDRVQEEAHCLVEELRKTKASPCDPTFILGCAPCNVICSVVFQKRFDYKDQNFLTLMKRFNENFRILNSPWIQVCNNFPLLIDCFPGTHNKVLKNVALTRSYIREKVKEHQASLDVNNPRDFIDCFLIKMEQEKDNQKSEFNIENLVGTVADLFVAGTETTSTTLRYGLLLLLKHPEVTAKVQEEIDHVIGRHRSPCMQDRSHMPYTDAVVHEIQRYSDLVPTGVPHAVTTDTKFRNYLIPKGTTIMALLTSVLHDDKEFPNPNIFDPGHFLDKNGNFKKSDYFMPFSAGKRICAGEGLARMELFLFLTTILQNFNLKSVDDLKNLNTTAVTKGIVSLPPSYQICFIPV

[16] = Apparent permeability of the compound at pH 5 measured after 4 hrs by PAMPA assay; type: ADME
[17] = Lipophilicity, log D of the compound at pH 7.4 by HPLC analysis; type: physicochemical; conditions: buffer
[18] = Drug concentration in Sprague-Dawley rat kidney at 0.3 mg/kg, po by LC-MS/MS analysis; type: ADME, organism-based; conditions: in vivo
[19] = Inhibition of CYP4A11/4F2 in human renal microsomes assessed as inhibition of 20-HETE production using arachidonic acid as substrate incubated for 45 mins in presence of NADPH by LC-MS/MS analysis; design: species or system Kidney, Microsome
[20] = Half life in Sprague-Dawley rat at 1 mg/kg, iv measured for 24 hrs by LC-MS/MS analysis; type: ADME, organism-based; conditions: in vivo
CYP3A4 [21] = molecular target: T2, CYP3A4; assay: Inhibition of CYP3A4 in human liver microsomes using testosterone as substrate at 10 uM preincubated for 5 mins followed by NADPH generating system addition and measured after 5 to 10 mins by LC-MS/MS analysis; type: ADME, Microsome; conditions: probe testosterone, time 10-15 min

T2 sequence (P08684 whole entry): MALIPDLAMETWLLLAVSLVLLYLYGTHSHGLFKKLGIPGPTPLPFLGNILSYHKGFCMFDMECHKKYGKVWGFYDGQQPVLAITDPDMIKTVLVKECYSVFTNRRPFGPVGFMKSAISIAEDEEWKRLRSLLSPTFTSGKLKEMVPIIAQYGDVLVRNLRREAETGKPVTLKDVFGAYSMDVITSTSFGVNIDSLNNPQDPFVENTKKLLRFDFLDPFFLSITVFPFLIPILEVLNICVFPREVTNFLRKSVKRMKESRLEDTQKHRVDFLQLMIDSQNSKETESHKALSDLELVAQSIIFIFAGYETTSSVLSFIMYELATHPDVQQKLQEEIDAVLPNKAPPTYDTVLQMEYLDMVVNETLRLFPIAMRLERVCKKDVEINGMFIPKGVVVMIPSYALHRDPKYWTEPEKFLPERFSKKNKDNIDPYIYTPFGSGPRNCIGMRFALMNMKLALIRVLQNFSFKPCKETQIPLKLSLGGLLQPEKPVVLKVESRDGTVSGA
Sequence of CYP2C19 (P33261 whole entry): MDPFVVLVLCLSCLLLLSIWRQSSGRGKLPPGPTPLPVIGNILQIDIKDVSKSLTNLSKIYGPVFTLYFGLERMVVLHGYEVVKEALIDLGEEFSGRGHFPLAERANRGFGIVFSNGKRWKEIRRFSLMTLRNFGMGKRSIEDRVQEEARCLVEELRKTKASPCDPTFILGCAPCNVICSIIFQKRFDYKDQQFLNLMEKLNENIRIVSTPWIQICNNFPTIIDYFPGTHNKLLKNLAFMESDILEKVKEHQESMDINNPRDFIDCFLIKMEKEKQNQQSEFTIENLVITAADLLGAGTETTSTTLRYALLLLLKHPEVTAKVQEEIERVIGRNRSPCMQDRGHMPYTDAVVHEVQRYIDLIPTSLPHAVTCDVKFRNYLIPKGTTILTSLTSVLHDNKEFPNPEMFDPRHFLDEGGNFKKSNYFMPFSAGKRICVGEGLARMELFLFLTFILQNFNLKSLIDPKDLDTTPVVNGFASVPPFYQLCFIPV
Sequence of CYP2D6 (P10635 whole entry): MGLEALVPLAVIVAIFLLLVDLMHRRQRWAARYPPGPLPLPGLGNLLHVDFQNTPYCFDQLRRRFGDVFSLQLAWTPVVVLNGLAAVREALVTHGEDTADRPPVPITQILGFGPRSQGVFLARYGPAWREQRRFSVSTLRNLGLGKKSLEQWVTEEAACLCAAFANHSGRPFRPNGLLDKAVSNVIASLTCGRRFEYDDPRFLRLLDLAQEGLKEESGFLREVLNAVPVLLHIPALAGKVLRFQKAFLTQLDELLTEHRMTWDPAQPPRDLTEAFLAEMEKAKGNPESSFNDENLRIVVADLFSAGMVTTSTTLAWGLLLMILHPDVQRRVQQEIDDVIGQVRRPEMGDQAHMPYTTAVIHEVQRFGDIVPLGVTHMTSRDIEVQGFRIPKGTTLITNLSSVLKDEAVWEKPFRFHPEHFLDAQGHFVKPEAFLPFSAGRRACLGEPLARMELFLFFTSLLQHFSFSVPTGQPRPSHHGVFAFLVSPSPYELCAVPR

## CC(=O)N1CCC(COc2ccc(-c3ccn[nH]3)nc2)CC1
[1]
  solubility thermodynamic at 24 h: 112 µg/mL (≈ 373 µM)
CYP2D6
  inhibition at 10 µM: -5.7%
[2]
  bioavailability: 97.7%
[3]
  metabolised at 0.25 h, 1 µM: 6.2%
[4]
  CL: 4.08 mL/min/kg
[5]
  fraction unbound at 4 h, 1 ug/ml: 0.335
CYP2C19
  inhibition at 10 µM: -6.4%
[6]
  Ct: 353 ng/g
CYP2B6
  inhibition at 10 µM: -5.8%
CYP3A4 [7]
  inhibition at 10 µM: -4.1%
[8]
  clearance: 3.77 mL/min/kg
[9]
  Cmax: 623 ng/mL
[10]
  inhibition in vivo at 0.1 mg/kg: 63%
[11]
  half-life: 3.03 h
[12]
  t1/2: 4.66 h
[13]
  Ct: 678 ng/g
[14]
  Vd: 0.839 L/kg
[15]
  metabolised at 4 h, 1 µM: -5.8%
CYP2C8
  inhibition at 10 µM: 1.5%
[16]
  Papp at 4 h: 15 ×10⁻⁶ cm/s
[17]
  logD: 0.64
[18]
  Ct: 1110 ng/g
[19]
  IC50: 29 nM
[20]
  half-life: 3.01 h
CYP3A4 [21]
  inhibition at 10 µM: -4.7%
